“And” between values parts separate entries of the source, which are not always exact repeats. Identical values can stand only once.
How the values were obtained:
[1] = Water solubility (UV spectroscopy); type: physicochemical
Text: Six representatives of 5-arylideneimidazolones (9–12, 15, 19) were chosen for the determination of water solubility. UV spectroscopy was used for the estimation of concentrations of compounds according to the method described earlier. Acquired UV absorbance, calculated means, and standard deviations for tested compounds are presented in Supplementary Table S18. Solubility results, presented in Table 6, point out that compounds from the same group (A or B, Table 1 and Table 2) with the two-ring aromatic moiety are more soluble than compounds with the fluorene motive (Group A: 9, 10, 11 vs. 12; Group B: 15 vs. 19). […] The most soluble of tested compounds was compound 15, which could be dissolved in water at a concentration of up to 205.502 mM/L.
Water solubility was obtained using UV spectroscopy method. Absorbance of tested solutions of compounds 9-12, 15, and 19, respectively in suitable dilution, in three repetitions as well as calculated arithmetic means, solubility and standard deviations are presented in Table S18. the solubility results […]
Table S18. Results of absorbance used for estimation of water solubility of tested compounds (9-12, 15, 19).
Abbreviations: A1, A2,and A3, UV absorbance in first, second, and third repetition; Amean, arithmetic mean of absorbance from three repetitions; s, standard deviation for absorbance; S, water solubility; SD – standard deviation for solubility. […]

CYP3A4 = CYP3A4 (Homo sapiens, UniProt P08684); experiment: Luminescent CYP3A4 P450-Glo assay
CYP3A4, sequence (P08684 whole entry): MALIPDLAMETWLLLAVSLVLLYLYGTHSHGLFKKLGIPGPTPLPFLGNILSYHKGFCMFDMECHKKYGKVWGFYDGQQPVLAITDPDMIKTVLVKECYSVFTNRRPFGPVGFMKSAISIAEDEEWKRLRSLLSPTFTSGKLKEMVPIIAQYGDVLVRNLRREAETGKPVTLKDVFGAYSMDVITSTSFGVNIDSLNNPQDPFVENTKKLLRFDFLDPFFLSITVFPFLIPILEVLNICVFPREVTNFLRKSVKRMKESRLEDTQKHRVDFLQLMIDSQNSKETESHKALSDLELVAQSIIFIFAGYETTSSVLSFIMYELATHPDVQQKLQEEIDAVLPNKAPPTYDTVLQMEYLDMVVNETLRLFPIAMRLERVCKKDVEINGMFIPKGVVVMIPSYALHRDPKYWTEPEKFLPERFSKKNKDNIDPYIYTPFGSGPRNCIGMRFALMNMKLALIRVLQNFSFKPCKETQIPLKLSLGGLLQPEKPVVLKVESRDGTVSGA
Experimental: The luminescent CYP3A4 P450-Glo™ assay was carried out according to a protocol described previously (Promega, Madison, WI, USA). […] Performance of enzymatic reaction was carried out in white polystyrene, flat-bottom Nunc™ MicroWell™ 96-Well Microplate (Thermo Scientific Waltham, MA, USA) and the result was measured with a microplate reader EnSpire in luminescence mode (PerkinElmer, Waltham, MA USA). IC50 values were calculated using GraphPad Prism™ software (version 5.01, San Diego, CA, USA). Compounds 15 and 19 were tested at concentrations from 0.01 μM to 25 μM.

MRSA 19449 = experiment: MIC determination (microdilution), MRSA 19449; type: cell-based, Staphylococcus aureus; details: Staphylococcus aureus, MRSA, no precipitation
Experimental: (§1) Determination of MIC values, i.e., intrinsic antibacterial activity, of products and antibiotics (oxacillin, ampicillin, vancomycin, ciprofloxacin, and erythromycin) in the presence and absence of compounds tested was conducted by the use of a standard 2-fold microdilution method in cation-adjusted Mueller Hinton broth following the Clinical and Laboratory Standards Institute (CLSI) guidelines. The MIC values were detected using an Infinite M200 pro Tecan microplate reader (Tecan® France, SA-Lyon, France). MIC determinations were conducted in 96-well microtiter plates and repeated 3–4 times.
(§2) Initially, MICs of a series of imidazolone derivatives were assessed against susceptible (reference) and MDR strains of staphylococci. Next, MIC values of the aforementioned antibiotics were determined in the absence and presence of imidazolone derivatives to assess the chemosensitizing effect of these compounds. […] 5-arylideneimidazolones and 5-arylidenethiazolones, which precipitated after addition to bacterial suspension in MH II medium, were tested at the highest concentrations at which precipitation was not observed. […] Antibacterial activity of compounds and antibiotics ampicillin, vancomycin, ciprofloxacin, and erythromycin was recorded as the lowest concentration of molecules able to inhibit bacterial growth after 18 h incubation at 37 °C. The incubation of bacterial strains exposed to oxacillin paired with compounds tested was conducted at 35 °C and extended to 24 h due to frequent occurrence of heterogeneity among MRSA strains. The results are presented as activity gain (A) parameter which was calculated as ratio of MIC of a certain antibiotic (MICAnt) to its MICAnt+Comp, observed in combination with a tested compound (7, 12–16, 19, or 20; Equation (1)). (1) A=(MICAnt/MICAnt+Comp)

S. aureus USA300 LAC = experiment: MIC reduction assay (antibiotic adjuvant), S. aureus USA300 LAC; type: cell-based, Staphylococcus aureus; design: key: A = MIC of antibiotic alone / MIC with compound
Text: The adjuvant properties of compounds 14–16 in S. aureus clinical isolates were next tested in combination with oxacillin and the penicillinase-susceptible β-lactam antibiotic, ampicillin. The second β-lactam antibiotic was chosen based on its vulnerability to enzymatic hydrolysis, another important resistance mechanism in S. aureus against penicillin. Therefore, the results of the MIC reduction assay obtained on the activity of arylideneimidazolones combined with oxacillin and ampicillin, respectively, might provide further insights into the possible mechanism of action of the compounds. Complete results are presented in Supplementary (Tables S4 and S5), while condensed in Figure 6, in the case of desired activity noted. […] One possible explanation for the lack of adjuvant activity of compounds in some of the strains selected for this study might be that these strains express PBP2a only when induced by the antibiotic, while others, for which potentiating activity of compounds was observed, produce this protein in high levels straight away.
as §1, §2

S. aureus LG-N017 = experiment: MIC of compounds, S. aureus LG-N017; type: cell-based; details: Staphylococcus aureus; LG-N017 (MRSA)
Experimental: Compounds 14–16 were tested further for their adjuvant-like effect with a set of ten additional S. aureus isolates. Firstly, MIC values of the molecules were evaluated in two clinical MSSA isolates (MM-O058, MM-N072), seven MRSA (USA300 LAC, 5328, LG-N017, MM-O021, R45-CC45, R46-CC22, COL) and one VISA strain (Mu50). Detailed results are presented in the Supplementary section (Table S3).
as §1
as §2, with “The incubation of bacterial strains exposed to oxacillin paired with compounds tested was conducted at 35 °C and extended to 24 h due to frequent occurrence of heterogeneity among MRSA strains.” left out, “(1) A=(MICAnt/MICAnt+Comp)” left out

In the case of NC1=N/C(=C\c2ccc3c(c2)Cc2ccccc2-3)C(=O)N1CCCN1CCOCC1 [Compound 19], the solubility [1] is reported as 8530 µg/mL and 19500 µM, the IC50 (CYP3A4) is reported as 24.9 µM and the MIC (MRSA 19449) is reported as 31.2 to 250 µM.

With NC1=N/C(=C\c2cccc(Oc3ccccc3)c2)C(=O)N1CCCN1CCOCC1 [Compound 16] the “A (activity gain)” value (S. aureus USA300 LAC; ampicillin) was 1, the “A (activity gain)” value (S. aureus USA300 LAC; ciprofloxacin) was 1 and the “A (activity gain)” value (S. aureus USA300 LAC; erythromycin) was 1. The MIC (S. aureus LG-N017) was 250 µM.

In the case of NC1=N/C(=C\c2ccc(-c3ccccc3)cc2)C(=O)N1CCCN1CCOCC1 [Compound 15], the solubility [1] is reported as 87600 µg/mL and 206000 µM, the IC50 (CYP3A4) is reported as over 25 µM and the inhibition at 25 µM (CYP3A4; human) is reported as under 50%. For the same compound, the “A (activity gain)” value (S. aureus USA300 LAC; ampicillin) was 2, the “A (activity gain)” value (S. aureus USA300 LAC; ciprofloxacin) was 1 and the “A (activity gain)” value (S. aureus USA300 LAC; erythromycin) was 1. The MIC (S. aureus LG-N017) was 250 µM and the MIC (MRSA 19449) was 31.2 to 250 µM.

With NC1=N/C(=C\c2ccc(-c3ccccc3)cc2)C(=O)N1CCN1CCOCC1 [Compound 14] the “A (activity gain)” value (S. aureus USA300 LAC; ampicillin) was 1, the “A (activity gain)” value (S. aureus USA300 LAC; ciprofloxacin) was 1 and the “A (activity gain)” value (S. aureus USA300 LAC; erythromycin) was 1. The MIC (S. aureus LG-N017) was at least 500 µM and the MIC (MRSA 19449) was 31.2 to 250 µM.
